In experiment [1] the target is T1, MraY from Aquifex aeolicus (Aquifex aeolicus, UniProt O66465).
T1 sequence (O66465 1-359): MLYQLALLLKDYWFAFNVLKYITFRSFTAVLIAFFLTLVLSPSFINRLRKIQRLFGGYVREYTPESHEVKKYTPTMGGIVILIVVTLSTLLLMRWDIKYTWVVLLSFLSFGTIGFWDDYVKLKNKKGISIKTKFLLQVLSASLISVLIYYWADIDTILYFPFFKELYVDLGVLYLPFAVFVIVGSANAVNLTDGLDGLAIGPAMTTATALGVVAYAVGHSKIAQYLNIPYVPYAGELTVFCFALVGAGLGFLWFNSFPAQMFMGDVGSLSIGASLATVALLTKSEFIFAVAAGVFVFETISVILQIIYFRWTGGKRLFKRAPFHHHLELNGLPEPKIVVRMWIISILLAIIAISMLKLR
Type of experiment: biochemical.

The test system of another experiment is E. coli DH5α strain. Briefly: Minimal inhibitory concentration against growth of E. coli DH5α. Format: cell-based. The note with it: Escherichia coli, read-out: MIC (E. coli DH5α).
Experiment [2] concerns S. aureus subsp. aureus (Newman strain). Put plainly: Minimal inhibitory concentration against growth of S. aureus. Type of experiment: cell-based.
The next experiment concerns the target MraY from C. bolteae (Enterocloster bolteae, UniProt R0BTE9). Briefly: Fluorescence-based in vitro MraY assay, MraY from C. bolteae. Type of experiment: biochemical, Clostridium bolteae. The note with it: IC50 ± SD.
The test system of experiment [3] is E. coli efflux-deficient ΔtolC mutant. Put plainly: Minimal inhibitory concentration against growth of E. coli ΔtolC. Type of experiment: cell-based.
For the next experiment, the target named is T2, MraY from S. aureus (Staphylococcus aureus, UniProt Q2FZ93).
T2 sequence (Q2FZ93 1-321): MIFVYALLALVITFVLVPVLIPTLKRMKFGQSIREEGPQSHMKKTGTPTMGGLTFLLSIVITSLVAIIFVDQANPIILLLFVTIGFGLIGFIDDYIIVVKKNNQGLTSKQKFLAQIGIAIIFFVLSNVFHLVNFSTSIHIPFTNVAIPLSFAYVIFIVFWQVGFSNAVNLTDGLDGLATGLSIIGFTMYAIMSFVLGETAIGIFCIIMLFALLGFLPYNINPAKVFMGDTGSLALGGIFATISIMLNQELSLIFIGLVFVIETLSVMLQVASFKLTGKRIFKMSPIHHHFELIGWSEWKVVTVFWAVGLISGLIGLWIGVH
Briefly: biochemical. Format: biochemical.

The mark [4] stands for this setting: read-out: IC50 (MraY Aquifex aeolicus), solubilized and purified form, IC50 ± SD.
The mark [5] stands for this setting: read-out: IC50 (MraY C. bolteae crude), protein in crude membranes.
[6] abbreviates: read-out: IC50 (MraY C. bolteae solubil.), protein in solubilized and purified form.
Setting [7] is: read-out: IC50 (MraY S. aureus), crude membranes, IC50 ± SD.
The mark [8] stands for this setting: IC50 (MraY C. bolteae crude), protein in crude membranes.
Setting [9] is: IC50 (MraY C. bolteae solubil.), protein in solubilized and purified form.

Values after ≈ are worked out from the molar mass of the structure shown. Like-named read-outs stand apart in the source and are kept apart here.

One may read the IC50 as the concentration that inhibits the measured activity by half. The MIC is the lowest concentration found to suppress growth. For the molecule `CO[C@H]1[C@H](O[C@H]([C@H]2O[C@@H](n3ccc(=O)[nH]c3=O)[C@H](O)[C@@H]2O)[C@H](NCCCNC(=O)[C@@H](NC(=O)[C@@H](NC(=O)N[C@H](C(=O)O)C(C)C)[C@@H]2CCNC(=N)N2)[C@@H](OC(=O)CCCCCCCCCCCCN(O)C(=N)N)C(C)C)C(=O)O)O[C@H](CN)[C@H]1O` [A1 3, muraymycin A1], the IC50 was 110 ± 20 pM in experiment [1] (setting [4]), 17 pM at MraY from C. bolteae (setting [5]), 160 ± 40 pM on MraY from C. bolteae (setting [6]) and 27 ± 3 pM on MraY from S. aureus (setting [7]). In the experiment on E. coli DH5α strain, the MIC is > 32 µg/mL. Further, in experiment [2], the “antibacterial activity against S. aureus in words” value is on record as “only congener with notable activity against S. aureus”. Also, the “MIC (E. coli ΔtolC)” value in experiment [3] turned out to be 2 µg/mL (≈ 1.65 µM).

In the case of `CO[C@H]1[C@H](O[C@H]([C@H]2O[C@@H](n3ccc(=O)[nH]c3=O)[C@H](O)[C@@H]2O)[C@H](NCCCNC(=O)[C@@H](NC(=O)[C@@H](NC(=O)N[C@H](C(=O)O)C(C)C)[C@@H]2CCN=C(N)N2)[C@@H](OC(=O)CCCCCCC(C)C)C(C)C)C(=O)O)O[C@H](CN)[C@H]1O` [B2 4, muraymycin B2], the IC50 was 110 ± 10 pM in experiment [1] (setting [4]), 8.3 pM at MraY from C. bolteae (setting [5]), 140 ± 10 pM on MraY from C. bolteae (setting [6]) and 10 ± 2 pM on MraY from S. aureus (setting [7]). For the same molecule, the MIC in the experiment on E. coli DH5α strain is > 32 µg/mL. The “MIC (E. coli ΔtolC)” value in experiment [3] turned out to be 1 µg/mL (≈ 0.909 µM).

In the case of `CO[C@H]1[C@H](O[C@H]([C@H]2O[C@@H](n3ccc(=O)[nH]c3=O)[C@H](O)[C@@H]2O)[C@H](NCCCNC(=O)[C@@H](NC(=O)[C@@H](NC(=O)N[C@H](C(=O)O)C(C)C)[C@@H]2CCN=C(N)N2)[C@@H](OC(=O)CCCCC(C)C)C(C)C)C(=O)O)O[C@H](CN)[C@H]1O` [B6 5, muraymycin B6], the IC50 is 190 ± 20 pM in experiment [1] (setting [4]), 36 pM at MraY from C. bolteae (setting [5]), 380 ± 30 pM on MraY from C. bolteae (setting [6]) and 21 ± 2 pM at MraY from S. aureus (setting [7]). Besides, in the experiment with E. coli DH5α strain, the MIC is > 32 µg/mL. Also, in experiment [3], the “MIC (E. coli ΔtolC)” value is 1 µg/mL (≈ 0.933 µM).

For `CO[C@H]1[C@H](O[C@H]([C@H]2O[C@@H](n3ccc(=O)[nH]c3=O)[C@H](O)[C@@H]2O)[C@H](NCCCNC(=O)[C@@H](NC(=O)[C@@H](NC(=O)N[C@H](C(=O)O)C(C)C)[C@@H]2CCNC(=N)N2)[C@@H](O)C(C)C)C(=O)O)O[C@H](CN)[C@H]1O` [C1 6, muraymycin C1], the MIC in the experiment with E. coli DH5α strain is > 32 µg/mL. Moreover, the IC50 is 93 pM against MraY from C. bolteae (setting [8]), 450 ± 170 pM against MraY from C. bolteae (setting [9]) and 16 ± 2 pM against MraY from S. aureus. In addition, the “MIC (E. coli ΔtolC)” value in experiment [3] stood at 1 µg/mL (≈ 1.06 µM).

Consider `CO[C@H]1[C@H](O[C@H]([C@H]2O[C@@H](n3ccc(=O)[nH]c3=O)[C@H](O)[C@@H]2O)[C@H](NCCCNC(=O)[C@H](CC(C)C)NC(=O)[C@@H](NC(=O)N[C@H](C(=O)O)C(C)C)[C@@H]2CCNC(=N)N2)C(=O)O)O[C@H](CN)[C@H]1O` [D1 7, muraymycin D1], for which the IC50 in experiment [1] is 99000 ± 30000 pM; against MraY from C. bolteae (setting [8]) it was 40000 pM; against MraY from C. bolteae (setting [9]) it was 380000 ± 110000 pM; against MraY from S. aureus, 480 ± 130 pM. Besides, the “fold lower inhibitory activity than C1 6 (Aquifex aeolicus)” value in experiment [1] (solubilized Aquifex aeolicus protein, relative to C1 6) is listed as “ca. 280 fold”. Besides, the MIC with E. coli DH5α strain was > 32 µg/mL. The “MIC (E. coli ΔtolC)” value in experiment [3] was 1 µg/mL (≈ 1.08 µM). The “fold difference in MraY inhibition between C1 6 and D1 7” value on MraY from S. aureus (crude membranes only (S. aureus and C. bolteae MraY)) was 30- to 430 fold. The “fold less active MraY inhibitor than C1 6 (S. aureus)” value on MraY from S. aureus (crude membranes, relative to C1 6) is listed as “ca. 30 fold”.

Turning to `CC(C)C[C@H](NC(=O)[C@@H](NC(=O)N[C@H](C(=O)O)C(C)C)[C@@H]1CCNC(=N)N1)C(=O)NCCCN[C@H](C(=O)O)[C@H](O[C@@H]1O[C@H](CN)[C@@H](O)[C@H]1O)[C@H]1O[C@@H](n2ccc(=O)[nH]c2=O)[C@H](O)[C@@H]1O` [D2 8, muraymycin D2], the IC50 in experiment [1] is 46000 ± 13000 pM; against MraY from C. bolteae (setting [8]), 25000 pM; on MraY from C. bolteae (setting [9]), 200000 ± 30000 pM; at MraY from S. aureus, 390 ± 110 pM. Further, in the experiment on E. coli DH5α strain, the MIC is > 32 µg/mL. In addition, in experiment [3], the “MIC (E. coli ΔtolC)” value stood at 1 µg/mL (≈ 1.09 µM).

Source of the values: PMC6019934 (ChemMedChem, 2018).
